“And” between values parts separate entries of the source, which are not always exact repeats. Equal values may be shown once.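 Exposure lasted 48 hours, with cells grown in 96-well plates and compounds tested at five concentrations. GI50 = concentration required for 50% inhibition of growth. Definition used: TGI = concentration required for complete inhibition of growth.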
How the values were obtained:
Test in all cases: NCI anticancer screen, dose series, 48 h
MALME-3M melanoma = test system: MALME-3M melanoma
COLO 205 colon = test system: COLO 205 colon
UACC-62 melanoma = test system: UACC-62 melanoma
M14 melanoma = test system: M14 melanoma
MCF7 breast = test system: MCF7 breast
MOLT-4 leukemia = test system: MOLT-4 leukemia
HOP-92 NSCLC = test system: HOP-92 NSCLC
NCI/ADR-RES ovarian = test system: NCI/ADR-RES ovarian
SF-539 CNS = test system: SF-539 CNS
SW-620 colon = test system: SW-620 colon

SMILES: Brc1ccc(C2C3CSc4ccccc4C3=NN2c2ccccc2)cc1 (stereo not given)
- TGI (MALME-3M melanoma): > 100 µM
- TGI (COLO 205 colon): > 100 µM
- TGI (UACC-62 melanoma): > 100 µM
- TGI (M14 melanoma): > 100 µM
- TGI (MCF7 breast): > 100 µM
- TGI (MOLT-4 leukemia): > 100 µM
- TGI (HOP-92 NSCLC): > 100 µM
- TGI (NCI/ADR-RES ovarian): > 100 µM
- TGI (SF-539 CNS): > 100 µM
- TGI (SW-620 colon): > 100 µM

SMILES: Clc1ccc(Cl)c(N=Nc2cc3c4c(c2)CCN4CCC3)c1
- TGI (MALME-3M melanoma): > 10 µM
- TGI (COLO 205 colon): > 10 µM
- TGI (UACC-62 melanoma): > 10 µM
- TGI (M14 melanoma): > 10 µM
- TGI (MCF7 breast): > 10 µM
- TGI (MOLT-4 leukemia): > 10 µM
- TGI (HOP-92 NSCLC): > 10 µM
- TGI (NCI/ADR-RES ovarian): > 10 µM
- TGI (SF-539 CNS): > 10 µM
- TGI (SW-620 colon): > 10 µM

SMILES: CS(=O)(=O)N1CC(CCl)c2ccc(NO)cc21 (stereo not given)
- TGI (MALME-3M melanoma): 37.7 µM
- TGI (COLO 205 colon): > 57.2 µM
- TGI (UACC-62 melanoma): 26.5 µM
- TGI (M14 melanoma): 34.3 µM
- TGI (MCF7 breast): 35.5 µM
- TGI (MOLT-4 leukemia): 19 µM
- TGI (HOP-92 NSCLC): 27.9 µM
- TGI (NCI/ADR-RES ovarian): 22.9 µM
- TGI (SF-539 CNS): 26.1 µM
- TGI (SW-620 colon): > 50.4 µM

SMILES: COC1(CC[C@@H](C)COC2OC(CO)C(O)C(O)C2O)O[C@H]2C[C@H]3[C@@H]4CC=C5C[C@@H](OC6OC(CO)C(OC7OC(C)C(O)C(O)C7O)C(O)C6OC6OC(C)C(O)C(O)C6O)CC[C@]5(C)[C@H]4CC[C@]3(C)[C@H]2[C@@H]1C (stereo not given in full)
- GI50 (MALME-3M melanoma): 1.96 µM
- TGI (MALME-3M melanoma): 5.09 µM
- GI50 (COLO 205 colon): 2.99 µM
- TGI (COLO 205 colon): 19.2 µM
- GI50 (UACC-62 melanoma): 2.31 µM
- TGI (UACC-62 melanoma): 16 µM
- GI50 (M14 melanoma): 1.58 µM
- TGI (M14 melanoma): 8.42 µM
- GI50 (MCF7 breast): 3.74 µM
- TGI (MCF7 breast): 12.9 µM
- GI50 (MOLT-4 leukemia): 5.36 µM
- TGI (MOLT-4 leukemia): > 26.1 µM
- GI50 (HOP-92 NSCLC): 2.32 µM
- TGI (HOP-92 NSCLC): 7.97 µM
- GI50 (NCI/ADR-RES ovarian): 2.59 µM
- TGI (NCI/ADR-RES ovarian): 6.19 µM
- GI50 (SF-539 CNS): 1.22 µM
- TGI (SF-539 CNS): 2.86 µM
- GI50 (SW-620 colon): 0.795 µM
- TGI (SW-620 colon): 2.21 µM

SMILES: CCc1n[nH]c(=O)n1CCCCCCCCn1c(CC)n[nH]c1=O
- TGI (MALME-3M melanoma): > 100 µM
- TGI (COLO 205 colon): > 100 µM
- TGI (UACC-62 melanoma): > 100 µM
- TGI (M14 melanoma): > 100 µM
- TGI (MCF7 breast): > 100 µM
- TGI (MOLT-4 leukemia): > 100 µM
- TGI (HOP-92 NSCLC): > 100 µM
- TGI (NCI/ADR-RES ovarian): > 100 µM
- TGI (SF-539 CNS): > 100 µM
- TGI (SW-620 colon): > 100 µM

SMILES: COc1ccc(Nc2nc3ccccc3n3cccc23)cc1OC
- TGI (MALME-3M melanoma): 32.9 µM
- TGI (COLO 205 colon): 27.4 µM
- TGI (UACC-62 melanoma): 27.4 µM
- TGI (M14 melanoma): 30.7 µM
- TGI (MCF7 breast): 29.6 µM
- TGI (MOLT-4 leukemia): 43.3 µM
- TGI (HOP-92 NSCLC): > 100 µM
- TGI (NCI/ADR-RES ovarian): 56.1 µM
- TGI (SF-539 CNS): 35 µM
- TGI (SW-620 colon): 36.6 µM

SMILES: O=c1[nH]/c(=C/c2ccc3c(c2)OCO3)c(=O)[nH]/c1=C/c1ccc2c(c1)OCO2
- TGI (MALME-3M melanoma): > 10 µM
- TGI (COLO 205 colon): > 10 µM
- TGI (UACC-62 melanoma): > 10 µM
- TGI (M14 melanoma): > 10 µM
- TGI (MCF7 breast): > 10 µM
- TGI (MOLT-4 leukemia): > 10 µM
- TGI (HOP-92 NSCLC): > 10 µM
- TGI (NCI/ADR-RES ovarian): > 10 µM
- TGI (SF-539 CNS): > 10 µM
- TGI (SW-620 colon): > 10 µM

SMILES: O=C1NC2NC3NC(=O)NC3NC2N1 (stereo not given)
- TGI (MALME-3M melanoma): > 100 µM
- TGI (COLO 205 colon): > 100 µM
- TGI (UACC-62 melanoma): > 100 µM
- TGI (M14 melanoma): > 100 µM
- TGI (MCF7 breast): > 100 µM
- TGI (MOLT-4 leukemia): > 100 µM
- TGI (HOP-92 NSCLC): > 100 µM
- TGI (NCI/ADR-RES ovarian): > 100 µM
- TGI (SF-539 CNS): > 100 µM
- TGI (SW-620 colon): > 100 µM

SMILES: C=C1CC(C)(COc2ccc3c(C)c(Cl)c(=O)oc3c2)OC1=O (stereo not given)
- TGI (MALME-3M melanoma): 7.63 µM
- TGI (COLO 205 colon): 2.43 µM
- TGI (UACC-62 melanoma): 3.01 µM
- TGI (M14 melanoma): 3.65 µM
- TGI (MCF7 breast): 3.15 µM
- TGI (MOLT-4 leukemia): 3.24 µM
- TGI (HOP-92 NSCLC): 4.41 µM
- TGI (NCI/ADR-RES ovarian): 14.2 µM
- TGI (SF-539 CNS): 15.6 µM
- TGI (SW-620 colon): 3.15 µM

SMILES: Cc1c(C)c2c(c(N)c1C#N)C(=O)N(O)C2=O
- TGI (MALME-3M melanoma): > 100 µM
- TGI (COLO 205 colon): > 100 µM
- TGI (UACC-62 melanoma): > 100 µM
- TGI (M14 melanoma): > 100 µM
- TGI (MCF7 breast): > 100 µM
- TGI (MOLT-4 leukemia): > 100 µM
- TGI (HOP-92 NSCLC): > 100 µM
- TGI (NCI/ADR-RES ovarian): > 100 µM
- TGI (SF-539 CNS): > 100 µM
- TGI (SW-620 colon): > 100 µM

SMILES: CCN(CC)CCCNc1c2c(Cl)cc(Cl)cc2nc2nc(=O)[nH]c(C)c12
- TGI (MALME-3M melanoma): > 100 µM
- TGI (COLO 205 colon): > 100 µM
- TGI (UACC-62 melanoma): > 100 µM
- TGI (M14 melanoma): 61.9 µM
- TGI (MCF7 breast): 53.9 µM
- TGI (MOLT-4 leukemia): 54.3 µM
- TGI (HOP-92 NSCLC): > 100 µM
- TGI (NCI/ADR-RES ovarian): > 100 µM
- TGI (SF-539 CNS): > 100 µM
- TGI (SW-620 colon): 37.9 µM

SMILES: CN(C)c1ccc(/C=C/C(=O)c2ccc(O)cc2)cc1
- TGI (MALME-3M melanoma): 51 µM
- TGI (COLO 205 colon): 26.6 µM
- TGI (UACC-62 melanoma): 19.3 µM
- TGI (M14 melanoma): > 100 µM
- TGI (MCF7 breast): > 100 µM
- TGI (MOLT-4 leukemia): 21 µM
- TGI (HOP-92 NSCLC): > 100 µM
- TGI (NCI/ADR-RES ovarian): > 40.6 µM
- TGI (SF-539 CNS): 13.5 µM
- TGI (SW-620 colon): > 100 µM

SMILES: C[C@@H](CC(O)C(O)C(C)(C)O)C1CCC23CC12CCC1[C@@]2(C)CCC(O)C(C)(C)C2CC(OC2OC(CO)C(O)C(O)C2O)[C@]13C (stereo not given in full)
- TGI (MALME-3M melanoma): > 10 µM
- TGI (COLO 205 colon): > 10 µM
- TGI (UACC-62 melanoma): > 10 µM
- TGI (M14 melanoma): > 10 µM
- TGI (MCF7 breast): > 10 µM
- TGI (MOLT-4 leukemia): > 10 µM
- TGI (HOP-92 NSCLC): > 10 µM
- TGI (NCI/ADR-RES ovarian): > 10 µM
- TGI (SF-539 CNS): > 10 µM
- TGI (SW-620 colon): > 10 µM

SMILES: CC1=CC(=O)CC2(C)CCC(C(C)CC(=O)CC(C)C)CC12OO (stereo not given)
- TGI (MALME-3M melanoma): > 100 µM and 36.7 µM
- TGI (COLO 205 colon): 27.8 µM and 34.8 µM
- TGI (UACC-62 melanoma): 31.9 µM and 35.2 µM
- TGI (M14 melanoma): 32.4 µM and 30.1 µM
- TGI (MCF7 breast): 31.9 µM and 31.7 µM
- TGI (MOLT-4 leukemia): 40.2 µM and 35.3 µM
- TGI (HOP-92 NSCLC): 31 µM and 37 µM
- TGI (NCI/ADR-RES ovarian): 56.6 µM and 81.2 µM
- TGI (SF-539 CNS): 28.9 µM and 30 µM
- TGI (SW-620 colon): 31.9 µM and 35.7 µM

From PubChem BioAssay (NCI)
